Measured values as given in patent US8354419B2, “Benzimidazole analogues for the treatment or prevention of flavivirus infections” (Vertex Pharmaceuticals Incorporated, priority 2009, dated 2013).

System: HCV (Ib) RNA replication
Assay: Cell-based luciferase reporter HCV (1b) RNA replication assay (replicon cell lines Huh-7 5.2 and ET)
Design: species or system Hepatitis C virus
Conditions: Hepatitis C virus, Huh-7, 96 h, HCV 1b genotype replicon, luciferase readout, 4 days incubation; read-out: EC50_1b
Method in brief: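 Compounds were tested at eleven concentrations in duplicate over 4 days at 37 °C, 5% CO2. The cells were luciferase-reporter HCV 1b replicon lines 5.2 (NS5A adaptive mutation) or ET (NS4B mutation). Luminescence of lysates was measured, and IC50s were derived by nonlinear curve fitting.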

SMILES	EC50 [nM]
COC(=O)N[C@H](C(=O)N1CCC[C@H]1c1nc2ccc(N3C[C@H](C)N(c4ccc5nc([C@@H]6CCCN6C(=O)[C@@H](NC(=O)OC)C(C)C)[nH]c5c4)C[C@H]3C)cc2[nH]1)C(C)C [Compound 258]	≤ 5
COC(=O)N[C@H](C(=O)N1CCC[C@H]1c1nc2ccc(-c3ccc(-c4ccc5nc([C@@H]6CCCN6C(=O)[C@@H](NC(=O)OC)C(C)C)n(C)c5c4)cc3)cc2n1C)C(C)C [Compound 259]	≤ 5
COC(=O)N(C)[C@H](C(=O)N1C[C@@H](C)C[C@H]1c1nc2cc(-c3cc4sc(-c5ccc6[nH]c([C@@H]7C[C@H](C)CN7C(=O)[C@H](C(C)C)N(C)C(=O)OC)nc6c5)cc4s3)ccc2[nH]1)C(C)C [Compound 260]	≤ 5
COC(=O)N[C@H](C(=O)N1C[C@H](C)C[C@H]1c1nc2cc(-c3ccc(-c4ccc5[nH]c([C@@H]6C[C@@H](C)CN6C(=O)[C@@H](NC(=O)OC)C(C)C)nc5c4)c(C)c3)ccc2[nH]1)C(C)C [Compound 261]	≤ 5
COC(=O)N[C@H](C(=O)N1C[C@@H](C)C[C@H]1c1nc2cc(-c3ccc(-c4ccc5[nH]c([C@@H]6C[C@H](C)CN6C(=O)[C@@H](Nc6ncccn6)C(C)C)nc5c4)cc3)ccc2[nH]1)C(C)C [Compound 262]	≤ 5
COC(=O)N[C@H](C(=O)N1C[C@@H](C)C[C@H]1c1nc2ccc(-c3ccc(-c4ccc(-c5ccc6nc([C@@H]7C[C@H](C)CN7C(=O)[C@@H](NC(=O)OC)C(C)C)[nH]c6c5)cc4)cc3)cc2[nH]1)C(C)C [Compound 263]	≤ 5
COC(=O)N[C@H](C(=O)N1C[C@@H](C)C[C@H]1c1nc2cc(-c3cc4sc(-c5ccc6[nH]c([C@@H]7C[C@H](C)CN7C(=O)[C@H](C(C)C)N(C)C(=O)OC)nc6c5)cc4s3)ccc2[nH]1)C(C)C [Compound 264]	≤ 5
COC(=O)N[C@H](C(=O)N1C[C@@H](O)C[C@H]1c1nc2cc(-c3ccc(-c4ccc5[nH]c([C@@H]6C[C@H](O)CN6C(=O)[C@@H](NC(=O)OC)C(C)C)nc5c4)c(C)c3)ccc2[nH]1)C(C)C [Compound 265]	≤ 5
COC(=O)N(C)[C@H](C(=O)N1C[C@@H](C)C[C@H]1c1nc2cc(-c3ccc(-c4ccc5[nH]c([C@@H]6C[C@H](C)CN6C(=O)[C@H](C(C)C)N(C)C(=O)OC)nc5c4)c(C)c3)ccc2[nH]1)C(C)C [Compound 266]	≤ 5
COC(=O)N[C@H](C(=O)N1CC[C@H](C)[C@H]1c1nc2cc(-c3ccc(-c4ccc5[nH]c([C@@H]6[C@@H](C)CCN6C(=O)[C@@H](NC(=O)OC)C(C)C)nc5c4)cc3)ccc2[nH]1)C(C)C [Compound 267]	≤ 5
COC(=O)N[C@H](C(=O)N1C[C@@H](C)C[C@H]1c1nc2cc(-c3ccc(-c4ccc5[nH]c([C@@H]6C[C@H](C)CN6C(=O)[C@@H](NC(=O)OC)C(C)C)nc5c4)c(C(=O)OC)c3)ccc2[nH]1)C(C)C [Compound 268]	≤ 5
COC(=O)N[C@H](C(=O)N1C(C)CC[C@H]1c1nc2cc(-c3ccc(-c4ccc5[nH]c([C@@H]6CCC(C)N6C(=O)[C@@H](NC(=O)OC)C(C)C)nc5c4)cc3)ccc2[nH]1)C(C)C (stereo partly drawn) [Compound 269]	≤ 5
COC(=O)N[C@H](C(=O)N1C[C@@H](C)C[C@H]1c1nc2cc(-c3ccc(-c4ccc5nc([C@@H]6C[C@H](C)CN6C(=O)[C@@H](NC(=O)OC)C(C)C)[nH]c5c4)cc3C(=O)O)ccc2[nH]1)C(C)C [Compound 270]	5 to 5000
COC(=O)N[C@H](C(=O)N1C[C@@H](C)C[C@H]1c1nc2cc(-c3ccc(-c4ccc5nc([C@@H]6CCCN6C(=O)[C@@H](NC(=O)OC)C(C)C)n(C)c5c4)cc3)ccc2[nH]1)C(C)C [Compound 271]	≤ 5
COC(=O)N[C@H](C(=O)N1CCC[C@H]1c1nc2cc(-c3ccc(-c4ccc5[nH]c([C@@H]6C[C@H](C)CN6C(=O)[C@@H](NC(=O)OC)C(C)C)nc5c4)cc3)ccc2[nH]1)C(C)C [Compound 272]	≤ 5
CC(C)(C)OC(=O)N1CCC[C@H]1c1nc2cc(N3CCCN(c4ccc5nc([C@@H]6CCCN6C(=O)OC(C)(C)C)[nH]c5c4)CC3)ccc2[nH]1 [Compound 273]	> 5000
COC(=O)N(C)[C@H](C(=O)N1C[C@@H](C)C[C@H]1c1nc2ccc(C#CC#Cc3ccc4nc([C@@H]5C[C@H](C)CN5C(=O)[C@H](C(C)C)N(C)C(=O)OC)[nH]c4c3)cc2[nH]1)C(C)C [Compound 274]	≤ 5
C[C@H]1CN(c2ccc3nc([C@@H]4CCCN4C(=O)OC(C)(C)C)[nH]c3c2)CCN1c1ccc2nc([C@@H]3CCCN3C(=O)OC(C)(C)C)[nH]c2c1 [Compound 275]	5 to 5000
COC(=O)N[C@H](C(=O)N1C[C@@H](C)C[C@H]1c1nc2cc(-c3cc(C)c(-c4ccc5[nH]c([C@@H]6C[C@H](C)CN6C(=O)[C@H](C(C)C)N(C)C(=O)OC)nc5c4)cc3C)ccc2[nH]1)C(C)C [Compound 276]	≤ 5
COC(=O)N(C)[C@H](C(=O)N1C[C@@H](C)C[C@H]1c1nc2cc(-c3cc(C)c(-c4ccc5[nH]c([C@@H]6C[C@H](C)CN6C(=O)[C@H](C(C)C)N(C)C(=O)OC)nc5c4)cc3C)ccc2[nH]1)C(C)C [Compound 277]	≤ 5

SMILES	EC50 [nM]
COC(=O)N(C)[C@H](C(=O)N1C[C@@H](C)C[C@H]1c1nc2cc(-c3ccc(-c4ccc5[nH]c([C@@H]6C[C@H](C)CN6C(=O)[C@H](C(C)C)N(C)C(=O)OC)nc5c4)c(F)c3)ccc2[nH]1)C(C)C [Compound 278]	≤ 5
COC(=O)N(C(C)C)[C@H](C(=O)N1C[C@@H](C)C[C@H]1c1nc2cc(-c3ccc(-c4ccc5nc([C@@H]6C[C@H](C)CN6C(=O)[C@H](C(C)C)N(C(=O)OC)C(C)C)[nH]c5c4)cc3)ccc2[nH]1)C(C)C [Compound 279]	≤ 5
COC(=O)N[C@H](C(=O)N1C[C@@H](C)C[C@H]1c1nc2cc(-c3cc(F)c(-c4ccc5[nH]c([C@@H]6C[C@H](C)CN6C(=O)[C@@H](NC(=O)OC)C(C)C)nc5c4)cc3F)ccc2[nH]1)C(C)C [Compound 280]	≤ 5
COC(=O)N[C@H](C(=O)N1C[C@@H](C)C[C@H]1c1nc2cc(-c3cc(F)c(-c4ccc5[nH]c([C@@H]6C[C@H](C)CN6C(=O)[C@H](C(C)C)N(C)C(=O)OC)nc5c4)cc3F)ccc2[nH]1)C(C)C [Compound 281]	≤ 5
COC(=O)N(C)[C@H](C(=O)N1C[C@@H](C)C[C@H]1c1nc2cc(-c3cc(F)c(-c4ccc5[nH]c([C@@H]6C[C@H](C)CN6C(=O)[C@H](C(C)C)N(C)C(=O)OC)nc5c4)cc3F)ccc2[nH]1)C(C)C [Compound 282]	≤ 5
C[C@@H]1CN(c2ccc3nc([C@@H]4CCCN4C(=O)OC(C)(C)C)[nH]c3c2)CCN1c1ccc2nc([C@@H]3CCCN3C(=O)OC(C)(C)C)[nH]c2c1 [Compound 283]	> 5000
COC(=O)N[C@H](C(=O)N1C[C@@H](C)C[C@H]1c1nc2cc(-c3ccc(-c4ccc5nc([C@@H]6C[C@H](C)CN6C(=O)[C@H](C(C)C)N(C(=O)OC)C(C)C)[nH]c5c4)cc3)ccc2[nH]1)C(C)C [Compound 284]	≤ 5
COC(=O)N[C@H](C(=O)N1C[C@@H](C)C[C@H]1c1nc2cc(-c3ccc(-c4ccc5[nH]c([C@@H]6C[C@H](C)CN6C(=O)[C@H](C(C)C)N(C)C(=O)OC)nc5c4)cc3F)ccc2[nH]1)C(C)C [Compound 285]	≤ 5
COC(=O)N[C@H](C(=O)N1C[C@@H](C)C[C@H]1c1nc2cc(-c3ccc(-c4ccc5[nH]c([C@@H]6C[C@H](C)CN6C(=O)[C@H](C(C)C)N(C)C(=O)OC)nc5c4)c(F)c3)ccc2[nH]1)C(C)C [Compound 286]	≤ 5
COC(=O)N1CCC[C@H]1C(=O)N1C[C@@H](C)C[C@H]1c1nc2cc(-c3ccc(-c4ccc5[nH]c([C@@H]6C[C@H](C)CN6C(=O)[C@@H]6CCCN6C(=O)OC)nc5c4)cc3)ccc2[nH]1 [Compound 287]	≤ 5
COC(=O)N[C@H](C(=O)N1C[C@@H](C)C[C@H]1c1nc2cc(-c3ccc(-c4ccc5[nH]c([C@@H]6C[C@H](C)CN6C(=O)[C@@H]6CCCN6C(=O)OC)nc5c4)cc3)ccc2[nH]1)C(C)C [Compound 288]	≤ 5
COC(=O)N(C)[C@H](C(=O)N1C[C@@H](C)C[C@H]1c1nc2cc(-c3ccc(-c4ccc5[nH]c([C@@H]6C[C@H](C)CN6C(=O)[C@@H](Nc6ncccn6)C(C)C)nc5c4)cc3)ccc2[nH]1)C(C)C [Compound 289]	≤ 5
COC(=O)N(C)[C@H](C(=O)N1C[C@@H](C)C[C@H]1c1nc2cc(-c3csc4c(-c5ccc6[nH]c([C@@H]7C[C@H](C)CN7C(=O)[C@H](C(C)C)N(C)C(=O)OC)nc6c5)csc34)ccc2[nH]1)C(C)C [Compound 290]	≤ 5
C[C@H]1C[C@@H](c2nc3ccc(-c4ccc(-c5ccc6nc([C@@H]7C[C@H](C)CN7C(=O)OC(C)(C)C)n(C)c6c5)cc4)cc3n2C)N(C(=O)OC(C)(C)C)C1 [Compound 291]	5 to 5000
C[C@H]1C[C@@H](c2nc3ccc(-c4ccc(-c5ccc6nc([C@@H]7C[C@H](C)CN7C(=O)OC(C)(C)C)n(C)c6c5)cc4)cc3[nH]2)N(C(=O)OC(C)(C)C)C1 [Compound 292]	5 to 5000
COC(=O)N[C@H](C(=O)N1C[C@@H](C)C[C@H]1c1nc2ccc(-c3ccc(-c4ccc5nc([C@@H]6C[C@H](C)CN6C(=O)[C@@H](NC(=O)OC)C(C)C)n(C)c5c4)cc3)cc2n1C)C(C)C [Compound 293]	≤ 5
COC(=O)N[C@H](C(=O)N1C[C@@H](C)C[C@H]1c1nc2ccc(-c3ccc(-c4ccc5nc([C@@H]6C[C@H](C)CN6C(=O)[C@@H](NC(=O)OC)C(C)C)n(C)c5c4)cc3)cc2[nH]1)C(C)C [Compound 294]	≤ 5
COC(=O)N(C)[C@H](C(=O)N1C[C@@H](C)C[C@H]1c1nc2ccc(-c3ccc(-c4ccc5nc([C@@H]6C[C@H](C)CN6C(=O)[C@H](C(C)C)N(C)C(=O)OC)n(C)c5c4)cc3)cc2n1C)C(C)C [Compound 295]	≤ 5
COC(=O)N(C)[C@H](C(=O)N1C[C@@H](C)C[C@H]1c1nc2ccc(-c3ccc(-c4ccc5nc([C@@H]6C[C@H](C)CN6C(=O)[C@H](C(C)C)N(C)C(=O)OC)n(C)c5c4)cc3)cc2[nH]1)C(C)C [Compound 296]	≤ 5
